The conditions of series [1]: cited from earlier work.
For a further series, the system named is gastric acid secretion. The series can be described thus: Gastric secretion in the pylorus-ligated rat (modified Shay procedure). It is filed as in vivo. The conditions noted are these: intraduodenal, 4 hours after ligation, read-out: % Inhibition of acid output; for inhibition in vivo at 16 mg/kg: 16 mg/kg i.d.; for inhibition in vivo at 32 mg/kg: 32 mg/kg i.d.; for inhibition in vivo at 4 mg/kg: 4 mg/kg i.d. As to the method: The procedure for testing gastric secretion in the rat, a modification of the procedure of Shay et al., Gastroenterology, 26, 906-13 (1954) is carried out as follows:
Male Charles River rats weighing 200-300 grams are deprived of food but not water for 24 hours prior to use. Water is, however, withheld during the experiment. The rats are weighed, anesthetized, and the pylorus ligated according to the method of Shay et al. Treatment or vehicle control is then administered interduodenally (i.d.). Rats are housed 2/cage and sacrificed with CO2 four hours after ligation. The stomachs are removed, rinsed, and contents emptied into a graduated centrifuge tube. The tubes are centrifuged for 20 minutes at 2,000 RPM and the volume of gastric juice recorded. Any samples obviously contaminated by feces, food or hemolysis are eliminated. An aliquot of each is frozen for later analysis of Na^+, K^+ and Cl^- concentration. The pH is measured and 1 ml. of gastric juice is titrated with 0.1 N NaOH to a pH of 7.0-7.4. Titratable acid output is calculated in microequivalents and the percent inhibition of acid output is calculated as follows: [formula]

The target in series [2] is T1, H2 histamine receptors (Cavia porcellus, UniProt P47747).
T1 construct: from tissue; host or cells: guinea pig right atrium (spontaneously beating)
T1 sequence (P47747 whole entry): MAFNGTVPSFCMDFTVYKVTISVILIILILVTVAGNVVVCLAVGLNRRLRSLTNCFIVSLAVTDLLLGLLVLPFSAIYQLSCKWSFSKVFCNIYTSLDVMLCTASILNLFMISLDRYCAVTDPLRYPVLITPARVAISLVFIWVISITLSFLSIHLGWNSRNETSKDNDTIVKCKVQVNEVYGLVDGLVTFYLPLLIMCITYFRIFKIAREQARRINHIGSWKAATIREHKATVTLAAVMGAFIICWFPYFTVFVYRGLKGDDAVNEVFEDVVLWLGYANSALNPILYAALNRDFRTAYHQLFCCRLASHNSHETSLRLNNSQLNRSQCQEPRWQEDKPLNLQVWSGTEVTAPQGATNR
Description: Guinea pig heart (spontaneously beating right atrium) test: antagonism of histamine-induced positive chronotropic response. It is filed as cell-based. The settings on record: 30 min preincubation, 32 °C, pH 7.4. Here is the method: The guinea pig heart atrium test is carried out as follows:
A guinea pig right atrium is suspended at 1 g. tension (isometric) in a thermostatically controlled (32° C.) tissue bath (10 ml.) containing oxygenated (95% O2; 5% CO2) Krebs-Haenseleit buffer (pH 7.4). The tissue is allowed to stabilize over 1 hour. Individual contractions are recorded with a force-displacement transducer through a strain gauge coupler. A control dose-response curve to histamine in the above described tissue bath is obtained after which the tissue is washed 3 times and allowed to re-equilibrate to basal rate. The test compound is added to the tissue bath at the desired final concentration. Thirty minutes after addition of the compound, a fresh histamine dose response curve is again obtained. Then the response to histamine in the presence of antagonist is compared to the histamine control response. This procedure is repeated, using fresh tissues, for each concentration of antagonist tested.

The test system of series [3] is H2 histamine receptors. The conditions noted are these: cited from earlier work.
Setting [4] is: histamine dose-response, three experiments, read-out: pA2 Value (apparent dissociation constant of the H2 antagonist) (converted).
Where [5] appears, read: values marked *: result of only one experiment, read-out: pKB value (converted).

Counter-ions that a name gives are not always drawn. Like-named read-outs stand apart in the source and are kept apart here.

The source of these data is US4452985A, “2-Guanyl-4-(substituted phenyl) thiazole derivatives” (American Home Products Corporation, priority 1983, dated 1984).

As for `CN/C(=N/CCSCc1nc[nH]c1C)NC#N` [Cimetidine], in series [1] (elderly patients), the “tendency to cause confusional states” value is “tendency to cause confusional states in elderly patients”. For the same compound, in series [1] (patients), the anti-androgenic activity result was “anti-androgenic activity” and the duration of action entry is “short duration of action”. For the compound `N#Cc1ccc(-c2csc(NC(=N)N)n2)cc1` [Example 1, [4-(4-Cyanophenyl)-2-Thiazolyl]Guanidine, Hydrobromide], in the series on gastric acid secretion, the inhibition in vivo at 16 mg/kg stood at 50%. Consider `N#CCc1ccc(-c2csc(NC(=N)N)n2)cc1` [Example 2, [4-[4-(Cyanomethyl)Phenyl]-2-Thiazolyl]Guanidine, Hydrobromide], for which the inhibition in vivo at 32 mg/kg with gastric acid secretion turned out to be 79%. Turning to `N#Cc1cccc(-c2csc(NC(=N)N)n2)c1` [Example 3, [4-(3-Cyanophenyl)-2-Thiazolyl]Guanidine, Hydrobromide, Hydrate], at H2 histamine receptors [2] (setting [4]), the Kb is 251 nM. For the same compound, the inhibition in vivo at 4 mg/kg with gastric acid secretion worked out at 40%. In the case of `N=C(N)Nc1nc(-c2cccc(C(=O)O)c2)cs1` [Example 4, 3-[2-[(Aminoiminomethyl)Amino]-4-Thiazolyl]Benzoic Acid, Hydrochloride], the pKB value on H2 histamine receptors [2] (values marked *: result of only one experiment) stood at 6.1. Take `N=C(N)Nc1nc(-c2cccc(C(N)=NO)c2)cs1` [Example 5, 3-[2-[(Aminoiminomethyl)Amino]-4-Thiazolyl]-N-Hydroxybenzenecarboximidamide, Dihydrochloride]: the Kb at H2 histamine receptors [2] (setting [4]) was 50.1 nM. Also, in the series with gastric acid secretion, the inhibition in vivo at 32 mg/kg came out at 68%. In the case of `N=C(N)Nc1nc(-c2cccc(C(N)=NOC(N)=O)c2)cs1` [Example 6, N-[(Aminocarbonyl)oxy]-3-[2-[(Aminoiminomethyl)Amino]-4-Thiazolyl]Benzenecarboximidamide, Hydrochloride, Hemihydrate], the Kb at H2 histamine receptors [2] (setting [4]) is 63.1 nM.

Consider `CC(=O)ON=C(N)c1cccc(-c2csc(NC(=N)N)n2)c1` [Example 7, N-(Acetyloxy)-3-[[2-[(Aminoiminomethyl)Amino]-4-Thiazolyl]Benzenecarboximidamide, Dihydrochloride], for which the Kb on H2 histamine receptors [2] (setting [4]) is 39.8 nM. As for `N=C(N)Nc1nc(-c2cccc(-c3noc(C(F)(F)F)n3)c2)cs1` [Example 8, [4-[3-[5-(Trifluoromethyl)-1,2,4-Oxadiazol-3-yl]Phenyl]-2-Thiazoyl]Guanidine, Hydrochloride], the inhibition in vivo at 32 mg/kg in the series with gastric acid secretion came to 84%.

`N=C(N)Nc1nc(-c2cccc(C(=N)N)c2)cs1` [Example 9, 3-[2-[(Aminoiminomethyl)Amino]-4-Thiazolyl]Benzenecarboximidamide, Dihydrobromide, Hemiethanolate]: the Kb at H2 histamine receptors [2] (setting [4]) was 5.01 nM. Moreover, in the series on gastric acid secretion, the inhibition in vivo at 32 mg/kg came to 55%. Take `CCOC(=N)c1cccc(-c2csc(NC(=N)N)n2)c1` [Example 10, 3-[2-[(Aminoiminomethyl)Amino]-4-Thiazolyl]Benzenecarboximidic Acid Ethyl Ester]: the inhibition in vivo at 4 mg/kg in the series on gastric acid secretion was found to be 41%. Turning to `N=C(N)Nc1nc(-c2cccc(C(N)=O)c2)cs1` [Example 11, 3-[2-[(Aminoiminomethyl)Amino]-4-Thiazolyl]Benzenecarboxamide, Hydrobromide], at H2 histamine receptors [2] (setting [5]), the Kb is 50.1 nM.

Regarding `CN=C(N)c1cccc(-c2csc(NC(=N)N)n2)c1` [Example 12, 3-[2-[(Aminoiminomethyl)Amino]-4-Thiazolyl]-N-Methylbenzenecarboximidamide,Quarter Hydrate], at H2 histamine receptors [2] (setting [5]), the Kb is 6.31 nM. The inhibition in vivo at 16 mg/kg in the series on gastric acid secretion amounted to 75%. On to `N=C(N)Nc1nc(-c2cccc(C(=O)NN)c2)cs1` [Example 13, 3-[2-[(Aminoiminomethyl)Amino]-4-Thiazolyl]Benzoic Acid Hydrazide, Hydrochloride], for which the Kb at H2 histamine receptors [2] (setting [5]) was 79.4 nM.

Turning to `CNC(=NC#N)NCCSCc1csc(N=C(N)N)n1` [tiotidine], the “H2 antagonist activity relative to cimetidine (in words)” value in the series with H2 histamine receptors [3] was “greater activity than cimetidine”.
